In patent US20260159520A1, “HETEROBIFUNCTIONAL COMPOUNDS AND METHODS OF TREATING DISEASE” (Halda Therapeutics OpCo, Inc., priority 2022, published 2026):

Tests used:
Assay type in all cases: cell-based
[1] = test system: T-Rex 293 cell line SC3 cells having increased expression of androgen receptor protein; assay: Cellular growth inhibition, T-Rex 293 SC3 cells with doxycycline (increased androgen receptor expression); conditions: with 10 ng/mL doxycycline (increased androgen receptor), 72 hours, CellTiter-Glo 2.0
Experimental: (§1) The following types of cells were prepared for this experiment: (i) a T-Rex 293 cell line having increased expression of androgen receptor protein due to exposure to doxycycline and (ii) a T-Rex 293 cell line lacking increased expression of androgen receptor protein. Ability of the test compounds to inhibit proliferation of the foregoing cell types was evaluated according to the procedures set forth below.
(§2) The doxycycline-inducible androgen receptor protein expressing cell line was established using the following protocol: T-Rex 293 cells were purchased from Invitrogen (Cat #R71007) and transfected using Lipofectamine 2000 with the wild-type androgen receptor protein sequence cloned into the pcDNA4/TO vector. Transfected cells were selected using 400 μg/mL Zeocin (Invitrogen Cat #R25001). Following selection, single clones were raised and maintained in Dulbecco's Modified Eagle Medium (DMEM) supplemented with 10% w/w Tetracycline-free fetal bovine serum (FBS) and 250 μg/mL Zeocin. Clones were analyzed for expression of androgen receptor protein in the presence and absence of 10 ng/mL doxycycline (Sigma Cat #D9891), and a single doxycycline-inducible clone (hereinafter “SC3”) was selected for use in downstream assays.
(§3) The SC3 cells were seeded on poly-D-lysine coated, black clear-bottom 384-well plates at 2500/well, in 25 μL Phenol Red Free Dulbecco's Modified Eagle Medium (DMEM) supplemented with 10% w/w charcoal-dextran treated fetal bovine serum (FBS) and 1% w/w pen-strep, with or without 10 ng/mL doxycycline. Pen-Strep is a commercially available mixture of penicillin G and streptomycin, which is used in mammalian cell culture media to prevent bacterial contamination. Phenol Red Free Dulbecco's Modified Eagle Medium (DMEM) supplemented with 10% w/w charcoal-dextran treated fetal bovine serum (FBS) and 1% w/w pen-strep, with or without 10 ng/mL doxycycline is herein referred to as Treatment Medium. Following seeding of cells in the plates, the plates were spun at 300×g for 30 seconds, then equilibrated to room temperature for 30 minutes, and then deposited in a humidified tissue culture incubator maintained at 37° C. with 5% CO2.
(§4) At 24 hours after seeding of the cells, dilutions of test compound were prepared in DMSO and dissolved in Treatment Medium, to achieve a final DMSO concentration of 0.5% w/w, thereby providing the Test Compound Solution. A 25 μL aliquot of the Test Compound Solution was added to cells in the well plates. An equal volume of a solution containing DMSO and Treatment Medium was used as a negative control. Following treatment of cells with Test Compound Solution or said equal volume of a solution containing DMSO and Treatment Medium, the plates were spun at 300×g for 30 seconds, and then left in an incubator for 72 hours.
(§5) At the end of the treatment duration, cell viability was quantified with CellTiter-Glo 2.0 reagent (Promega Cat #G9243). For this purpose, plates were equilibrated to room temperature for 30 minutes, and then 25 μL of CellTiter-Glo 2.0 reagent was added to cells in the plate wells. Plates were then agitated on a shaker for two minutes at 500 rpm and subsequently incubated at room temperature for 10 minutes. Following incubation, the plates were spun at 3000×g for 30 seconds, then sealed with an optical adhesive cover, and luminescence readings were measured with an EnVision Plate Reader.
(§6) Data was normalized using zero luminescence for baseline. A four-parameter non-linear regression curve fit was applied to dose-response data in GraphPad Prism data analysis software to determine the half-maximal growth inhibitory concentration (GI50) for each test compound.

[2] = test system: T-Rex 293 cell line SC3 cells lacking increased expression of androgen receptor protein; assay: Cellular growth inhibition, T-Rex 293 SC3 cells without doxycycline; conditions: not exposed to doxycycline, 72 hours, CellTiter-Glo 2.0
Experimental: as §1, §2, §3, §4, §5, §6

VCaP cells = assay: Cellular growth inhibition assay for VCaP cells; conditions: Homo sapiens, 72 hours, CellTiter-Glo 2.0
Experimental: VCaP cells were purchased from American Type Cell Culture (ATCC Cat #CRL2876) and then seeded on poly-D-lysine coated, black clear-bottom 384-well plates at 5000/well in 25 μL Dulbecco's Modified Eagle Medium (DMEM) supplemented with 10% w/w Fetal bovine serum (FBS) and 1% w/w Pen-Strep. Pen-Strep is a commercially available mixture of penicillin G and streptomycin, which is used in mammalian cell culture media to prevent bacterial contamination. Dulbecco's Modified Eagle Medium (DMEM) supplemented with 10% w/w fetal bovine serum (FBS) and 1% w/w Pen-Strep is herein referred to as Treatment Medium. Following seeding of cells in the plates, the plates were spun at 300×g for 30 seconds, then equilibrated to room temperature for 30 minutes, and then deposited in a humidified tissue culture incubator maintained at 37° C. with 5% CO2.
as §4
as §5, with “Reader. Data was normalized using zero luminescence for baseline.” for “Reader.”
A four-parameter non-linear regression curve fit was applied to dose-response data in GraphPad Prism data analysis software to determine the half-maximal growth inhibitory concentration (GI50) for each test compound.

Structure (SMILES) | GI50 [1] [nM] | GI50 [2] [nM] | GI50 (VCaP cells) [nM]
CC1(C)[C@H](NC(=O)c2cnc(N3CCC(OCCOCCOCCOCCOCCOCCOCCNS(=O)(=O)c4ccc(Nc5ncc(Br)c(Nc6cccc(F)c6C(N)=O)n5)cc4)CC3)nc2)C(C)(C)[C@H]1Oc1ccc(C#N)c(Cl)c1 [Compound I-16] | > 3500 | > 3500 | 
CN(CCOCCOCCOCCOCCOCCOCCNS(=O)(=O)c1ccc(Nc2ncc(Br)c(Nc3cccc(F)c3C(N)=O)n2)cc1)c1ncc(C(=O)N[C@H]2C(C)(C)[C@H](Oc3ccc(C#N)c(Cl)c3)C2(C)C)cn1 [Compound I-21] | > 3500 | > 3500 | 
CCc1cnn2c(NCc3ccc(OCCCOC4CCN(c5ncc(C(=O)N[C@H]6C(C)(C)[C@H](Oc7ccc(C#N)c(Cl)c7)C6(C)C)cn5)CC4)nc3)cc(N3CCCC[C@H]3CCO)nc12 [Compound I-26] | 1000 to 3500 | > 3500 | 
CCc1cnn2c(NCc3ccc(OCCCCCOC4CCN(c5ncc(C(=O)N[C@H]6C(C)(C)[C@H](Oc7ccc(C#N)c(Cl)c7)C6(C)C)cn5)CC4)nc3)cc(N3CCCC[C@H]3CCO)nc12 [Compound I-28] | 100 to 1000 | > 3500 | 
CCc1cnn2c(CCc3ccc(OCCCCCCOC4CCN(c5ncc(C(=O)N[C@H]6C(C)(C)[C@H](Oc7ccc(C#N)c(Cl)c7)C6(C)C)cn5)CC4)nc3)cc(N3CCCC[C@H]3CCO)nc12 [Compound I-29] | 100 to 1000 | > 3500 | 
CCc1cnn2c(NCc3ccc(OCCCCCCCOC4CCN(c5ncc(C(=O)N[C@H]6C(C)(C)[C@H](Oc7ccc(C#N)c(Cl)c7)C6(C)C)cn5)CC4)nc3)cc(N3CCCC[C@H]3CCO)nc12 [Compound I-30] | > 3500 | > 3500 | 
CCc1cnn2c(NCc3ccc(OCCCOCCOC4CCN(c5ncc(C(=O)N[C@H]6C(C)(C)[C@H](Oc7ccc(C#N)c(Cl)c7)C6(C)C)cn5)CC4)nc3)cc(N3CCCC[C@H]3CCO)nc12 [Compound I-32] | < 100 | 1000 to 3500 | < 100
CCc1cnn2c(NCc3ccc(OCCOCCCOC4CCN(c5ncc(C(=O)N[C@H]6C(C)(C)[C@H](Oc7ccc(C#N)c(Cl)c7)C6(C)C)cn5)CC4)nc3)cc(N3CCCC[C@H]3CCO)nc12 [Compound I-33] | < 100 | 1000 to 3500 | 100 to 1000
CCc1cnn2c(NCc3ccc(OCCCOCCCOC4CCN(c5ncc(C(=O)N[C@H]6C(C)(C)[C@H](Oc7ccc(C#N)c(Cl)c7)C6(C)C)cn5)CC4)nc3)cc(N3CCCC[C@H]3CCO)nc12 [Compound I-35] | < 100 | 100 to 1000 | 100 to 1000
CCc1cnn2c(NCc3ccc(OCCOCCCCOC4CCN(c5ncc(C(=O)N[C@H]6C(C)(C)[C@H](Oc7ccc(C#N)c(Cl)c7)C6(C)C)cn5)CC4)nc3)cc(N3CCCC[C@H]3CCO)nc12 [Compound I-36] | < 100 | > 3500 | < 100
CCc1cnn2c(NCc3ccc(OCCCCCOCCOC4CCN(c5ncc(C(=O)N[C@H]6C(C)(C)[C@H](Oc7ccc(C#N)c(Cl)c7)C6(C)C)cn5)CC4)nc3)cc(N3CCCC[C@H]3CCO)nc12 [Compound I-37] | 100 to 1000 | > 3500 | > 3500
CCc1cnn2c(NCc3ccc(OCCCCOCCCOC4CCN(c5ncc(C(=O)N[C@H]6C(C)(C)[C@H](Oc7ccc(C#N)c(Cl)c7)C6(C)C)cn5)CC4)nc3)cc(N3CCCC[C@H]3CCO)nc12 [Compound I-38] | 100 to 1000 | > 3500 | 100 to 1000
CCc1cnn2c(NCc3ccc(OCCCOCCCCOC4CCN(c5ncc(C(=O)N[C@H]6C(C)(C)[C@H](Oc7ccc(C#N)c(Cl)c7)C6(C)C)cn5)CC4)nc3)cc(N3CCCC[C@H]3CCO)nc12 [Compound I-39] | < 100 | > 3500 | > 3500
CCc1cnn2c(NCc3ccc(OCCCC4CCN(CC5CCN(c6ncc(C(=O)N[C@H]7C(C)(C)[C@H](Oc8ccc(C#N)c(Cl)c8)C7(C)C)cn6)CC5)CC4)nc3)cc(N3CCCC[C@H]3CCO)nc12 [Compound I-53] | < 100 | 100 to 1000 | 
